Results reported in PubChem BioAssay (NCI).
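Method: 48-hour compound exposure of cells in 96-well plates, five concentrations, linear interpolation of endpoints. TGI: total growth inhibition.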 Square brackets hold non-standard residues; d marks the D form. Peptide text beside a SMILES is read from it. Phe(4-NO2) = N[CH](Cc1ccc([N+](=O)[O-])cc1)C(=O)O

Key:
Assay in all cases: inhibition of tumour cell growth, NCI panel, 48 h
786-0 renal = system: 786-0 renal
A498 renal = system: A498 renal
CAKI-1 renal = system: CAKI-1 renal
HCT-15 colon = system: HCT-15 colon
HOP-92 NSCLC = system: HOP-92 NSCLC
MDA-MB-435 = system: MDA-MB-435
NCI-H522 lung = system: NCI-H522 lung
OVCAR-3 ovarian = system: OVCAR-3 ovarian
SK-MEL-28 melanoma = system: SK-MEL-28 melanoma

Structure (SMILES) | TGI (786-0 renal) [µM] | TGI (A498 renal) [µM] | TGI (CAKI-1 renal) [µM] | TGI (HCT-15 colon) [µM] | TGI (HOP-92 NSCLC) [µM] | TGI (MDA-MB-435) [µM] | TGI (NCI-H522 lung) [µM] | TGI (OVCAR-3 ovarian) [µM] | TGI (SK-MEL-28 melanoma) [µM]
COc1ccc(Br)c(C=Nc2cccc3cc(OC)c(OC)cc23)c1 | > 100 | > 100 | > 100 | 16.4 | 79.5 | 12.6 | > 100 | > 100 | > 100
COC(=O)CCC(NC(=O)C(CCC(=O)OC)NC(=O)C(CCC(=O)OC)NC(=O)C(CCC(=O)OC)NC(=O)C(CCC(=O)OC)NC(=O)C(Cc1ccc([N+](=O)[O-])cc1)NC(=O)C(CCC(=O)OC)NC(=O)C(CCC(=O)OC)NC(=O)C(CCC(=O)OC)NC(=O)C(CCC(=O)OC)NC(=O)C(CCC(=O)OC)NC(C)=O)C(N)=O (stereo unspecified) (Ac-E(OMe)E(OMe)E(OMe)E(OMe)E(OMe)[Phe(4-NO2)]E(OMe)E(OMe)E(OMe)E(OMe)E(OMe)-NH2; configuration not given here) | > 100 | – | > 100 | – | – | > 100 | > 100 | – | > 100
C=CCN(c1cc(OC)c2c(c1[N+](=O)[O-])C(C)(SC)C(=O)N2)S(C)(=O)=O (stereo unspecified) | > 100 | > 100 | > 100 | > 100 | > 100 | > 100 | > 100 | – | > 100
ClCCc1ccccc1CC1=NCCc2ccccc21 | > 100 | > 100 | 92.4 | > 100 | > 100 | > 100 | 44 | > 100 | > 100
C[C@H](CO)C1=CC(C#C[Si](C)(C)C)N(C(=O)Oc2ccccc2)c2ccccc21 (stereo partly specified) | 27.2 | – | 28.7 | 9.71 | 28.7 | 7.25 | 15.7 | 13.5 | 37.5
CC(C)C[C@H](NC(=O)CCc1cccc2ccccc12)B(O)O | 28.3 | 6.12 | 3.94 | 9.01 | 7.37 | 1.02 | 4.95 | 1.86 | 4.05
CC(C)(C)OC(=O)N1CCC(NC(=O)NC2CCN(C(=O)OC(C)(C)C)CC2)CC1 | > 100 | > 100 | > 100 | > 100 | > 100 | > 100 | > 100 | > 100 | > 100
C=C(C1=CC(=O)C(C)(C)O1)[C@@H]1CC=C([C@@H]2CC[C@H]3[C@@]2(C)CC[C@H]2C(C)(C)C(=O)[C@H](OC(=O)CC(C)(O)CC(=O)O)C[C@]32C)[C@H](O)O1 (stereo partly specified) | 24.4 | 26 | 45.8 | 24.9 | 24.7 | 34.2 | 25.4 | 23.6 | –
CCOC(OCC)[C@H](N)[C@@H](O)[C@@H](O)[C@H]1COC(C)(C)O1 | > 100 | > 100 | – | > 100 | – | > 100 | – | > 100 | > 100
Nc1ncnc2c1cnn2COCC(O)CO (stereo unspecified) | > 100 | > 100 | > 100 | > 100 | > 100 | > 100 | > 100 | > 100 | > 100
Cn1c(O)c(C=Nc2ccc(Cl)cc2Cl)c(=O)n(C)c1=O | > 100 | > 100 | > 100 | > 100 | > 100 | > 100 | > 100 | > 100 | –
Brc1ccc(C2CC3(c4ccccc4)ON=C(c4ccccc4)N3c3ccccc3S2)cc1 (stereo unspecified) | > 100 | > 100 | – | > 100 | > 100 | > 100 | > 100 | > 100 | > 100
